Assay [1] concerns mammary tumors. To be noted: Sprague-Dawley rats; cited from earlier work.
Assay [2] has as its system HepG2 cells. Nature of the assay: Glutathione levels in HepG2 cell lysates, o-phthalaldehyde fluorescence (Example 6). The assay is classed as cell-based, human. To be noted: alone or combined. The protocol: The following study was conducted to determine the effect of the combination of sulforaphane and silibinin on glutathione levels. Glutathione plays an important role in the body, as it can serve as an antioxidant, detoxifier, and immunity enhancer. Decreased levels of glutathione can cause a patient to be susceptible to oxidative stress, illness, and cancer. Therefore, an increase in glutathione levels is a beneficial effect.
In the study, the human liver cancer cell line, HepG2 cells were treated with DMSO (vehicle control), sulforaphane (SFN), silibinin (Silib), or the combination of sulforaphane and silibinin, for 24 hours. Cell lysates were collected and glutathione levels were measured using o-phthalaldehyde (OPT) as a fluorescent reagent. FIG. 5 and FIG. 6 show the results of the study.
In Part 1 of the study, the effect of 0.5 μM SFN was compared to various concentrations of silibinin and to the combination of 0.5 μM SFN and silibinin at various concentrations. […] An increase in glutathione levels is a beneficial effect. The results are depicted in FIG. 5.
In Part 2 of the study, the effect of 2 μM SFN was compared to various concentrations of silibinin and to the combination of 2 μM SFN and silibinin at various concentrations. […] An increase in glutathione levels is a beneficial effect to detoxify cells. The results are depicted in FIG. 6.

Assay [3] deals with heme oxygenase-1 (HO-1). To be noted: oral administration; mammary epithelium; Sprague-Dawley rats; cited from earlier work.
Assay [4] relates to myrosinase. Nature of the assay: Equimolar conversion of glucoraphanin to sulforaphane by myrosinase, HPLC (Example 4). The assay is classed as biochemical, broccoli. The protocol:
A two-part experiment was conducted to further elucidate the role of ascorbic acid in modulating myrosinase activity. […] A control sample contained no ascorbic acid, and the enzymatic conversion proceeded unassisted by a co-factor. PART 1. […] PART 2. While keeping the amount of broccoli seed extract fixed at 250 mg, the concentration of ascorbic acid was varied from 0.4 mmol/Liter to 3.8 mmol/Liter.

Assay [5] relates to NAD(P)H:quinine oxidoreductase (NQO1). The conditions noted are these: oral administration; mammary epithelium; Sprague-Dawley rats; cited from earlier work.
Assay [6] relates to myrosinase. Nature of the assay: Conversion of glucoraphanin to sulforaphane in simulated intestinal fluid (Example 5). The conditions noted are these: 38° C., ascorbic acid 0.25 to 1.00 mmol/Liter, 2 hours, FIG. 4. Type of assay: biochemical, broccoli. The protocol:
Simulated Intestinal Fluid (SIF) powder, a commercially supplied concentrate closely approximating the human intestinal content in terms of composition, pH and ionic strength, was used. The experiment utilized a USP Dissolution Apparatus 2 (paddles), where into six dissolution vessels 500 mL of Simulated Intestinal Fluid was dispensed, along with 150 mg of freeze-dried broccoli sprout powder as a source of myrosinase. […] Aliquots were withdrawn every 15 minutes, and assayed for sulforaphane.

Consider `C[S+]([O-])CCCCN=C=S` (stereo not drawn) [sulforaphane, 1-isothiocyanato-4-methylsulfinylbutane], for which the “Formation of mammary tumors” value in assay [1] was “effective in blocking the formation of mammary tumors”. Further, the “Glutathione levels compared to DMSO (vehicle) control” value in assay [2] (Part 1, 24 hours: 0.5 μM SFN, 100, 200, 300 μM Silib, FIG. 5) was “remained the same”. Besides, in assay [2] (Part 2, 24 hours: 2 μM SFN, 100, 300 μM Silib, FIG. 6), the “Glutathione levels compared to the control” value is reported as “remained the same”. In addition, in assay [3], the “Elevated immunostaining of HO-1 enzyme” value was 4 fold.
With `C[S+]([O-])CCCC/C(=N\OS(=O)(=O)O)S[C@@H]1O[C@H](CO)[C@@H](O)[C@H](O)[C@H]1O` (stereo partly drawn) [glucoraphanin, 1-S-[(1E)-5-(methylsulfinyl)-N-(sulfonatooxy)pentanimidoyl]-1-thio-β-D-glucopyranose], the “Stoichiometry of enzymatic conversion of glucoraphanin to sulforaphane” value in assay [4] (control sample without ascorbic acid) is on record as “equimolar conversion of glucoraphanin to sulforaphane”. Besides, the “Elevated immunostaining of HO-1 enzyme” value in assay [3] was 4 fold. The “Increase in NQO1 enzymatic activity” value in assay [5] is given as 3 fold.
For `O=C1O[C@H]([C@@H](O)CO)C(O)=C1O` [Ascorbic Acid, ascorbic acid], in assay [6], the “Yield of sulforaphane versus ascorbic acid concentration” value is “direct correlation between larger yield of sulforaphane and higher concentrations of ascorbic acid”. In assay [4] (Part 2: 250 mg broccoli seed extract, ascorbic acid 0.4 to 3.8 mmol/Liter), the “Modulatory effect of increasing ascorbic acid concentration on myrosinase activity” value was “linear, increase in myrosinase-promoted conversion of glucoraphanin to sulforaphane is observed to about 2 mmol/L”.

The record behind these values is US20150118306A1, “COMPOSITIONS COMPRISING SULFORAPHANE OR A SULFORAPHANE PRECURSOR AND A MILK THISTLE EXTRACT OR POWDER” (Nutramax Laboratories, Inc., priority 2012, published 2015).
